Measured values published in EPA's ToxRefDB 2.

Assays:
mouse [1] = conditions: Subchronic oral toxicity in rodents, b6c3f1, Feed, dose end: 90 day, group: systemic
dog [2] = conditions: Subchronic oral toxicity in nonrodent, beagle, Feed, dose end: 13 week, group: systemic
rat [3] = conditions: Subchronic oral toxicity in rodents, fischer, Feed, dose end: 90 day, group: systemic, systemic / clinical chemistry / thyroxine (t4) / thyroxine (t4), total + systemic / clinical chemistry / triiodothyronine (t3) / …
rat [4] = conditions: Combined chronic toxicity/carcinogenicity, fischer, Oral, [Not Specified], dose end: 24 month, group: systemic
dog [5] = conditions: Subchronic oral toxicity in nonrodent, beagle, Capsule, dose end: 13 week, group: systemic, systemic / clinical chemistry / creatinine / creatinine + systemic / clinical chemistry / urea nitrogen / urea nitrogen + systemic / in life…
dog [6] = conditions: Chronic toxicity, beagle, Oral, Feed, dose end: 52 week, group: systemic
mouse [7] = conditions: Combined chronic toxicity/carcinogenicity; b6c3f1; Oral; Feed; dose end: 104 week; group: systemic; systemic / organ weight / kidney / absolute + systemic / organ weight / kidney / relative to body weight + systemic / pathology microscopic…
rat [8] = conditions: Prenatal developmental toxicity study, fischer, Oral, Gavage/Intubation, dose end: 15 GD
rat [9] = conditions: Carcinogenicity, wistar, Oral, Feed, dose end: 104 week, group: systemic
rat [10] = conditions: Chronic toxicity, wistar, Oral, Feed, dose end: 12 month, group: systemic
dog [11] = conditions: Subchronic oral toxicity in nonrodent, beagle, Feed, dose end: 90 day, group: systemic, systemic / clinical chemistry / alanine aminotransferase (alt/sgpt) / alanine aminotransferase (alt/sgpt) + systemic / clinical chemistry / …
rat [12] = conditions: Subchronic oral toxicity in rodents, wistar, Feed, dose end: 90 day, group: systemic
rabbit [13] = conditions: Prenatal developmental toxicity study, himalayan, Oral, Gavage/Intubation, dose end: 19 GD
rat [14] = conditions: Combined chronic toxicity/carcinogenicity; sprague dawley; Oral; Feed; dose end: 104 week; group: systemic; systemic / in life observation / clinical signs / convulsions
rat [15] = conditions: Subchronic oral toxicity in rodents, sprague dawley, Feed, dose end: 90 day, group: systemic, systemic / in life observation / body weight / body weight + systemic / in life observation / body weight / body weight gain + systemic / in…
rat [16] = conditions: Prenatal developmental toxicity study, sprague dawley, Oral, Gavage/Intubation, dose end: 18 GD
rabbit [17] = conditions: Prenatal developmental toxicity study; himalayan; Oral; Gavage/Intubation; dose end: 18 GD; group: maternal; systemic / in life observation / body weight / body weight gain + systemic / in life observation / food consumption / food consumption
rabbit [18] = conditions: Prenatal developmental toxicity study, himalayan, Oral, Gavage/Intubation, dose end: 18 GD
dog [19] = conditions: Sub-acute repeat dose toxicity, beagle, Oral, Gavage/Intubation, dose end: 4 week, group: systemic
mouse [20] = conditions: Subchronic oral toxicity in rodents, cd1, Gavage/Intubation, dose end: 90 day, group: systemic
rat [21] = conditions: Prenatal developmental toxicity study, sprague dawley, Oral, Gavage/Intubation, dose end: 18 GD; remark: listed apart in the source
rat [22] = conditions: Sub-acute repeat dose toxicity, sprague dawley, Oral, Gavage/Intubation, dose end: 4 week, group: systemic
[23] = systemic / pathology microscopic / kidney / [other] + systemic / pathology microscopic / liver / nuclear alteration + systemic / pathology …
[24] = systemic / in life observation / body weight / body weight + systemic / in life observation / body weight / body weight gain + systemic / in…
[25] = systemic / clinical chemistry / thyroxine (t4) / thyroxine (t4), total + systemic / organ weight / thyroid gland / absolute + systemic / …
[26] = systemic / pathology gross / thyroid gland / mass
[27] = systemic / clinical chemistry / alanine aminotransferase (alt/sgpt) / alanine aminotransferase (alt/sgpt) + systemic / clinical chemistry / …
[28] = systemic / in life observation / body weight / body weight gain + systemic / pathology microscopic / kidney / pigmentation
[29] = group: developmental, developmental / developmental malformation / bone / full supernumerary + developmental / developmental malformation / bone / incomplete …
[30] = group: maternal, systemic / in life observation / body weight / body weight gain
[31] = systemic / pathology gross / lymph node / enlarged
[32] = systemic / pathology microscopic / stomach / edema + systemic / pathology microscopic / stomach / hyperkeratosis + systemic / pathology …
[33] = systemic / pathology gross / liver / foci
[34] = systemic / pathology gross / liver / foci + systemic / pathology gross / stomach / thickened + systemic / pathology microscopic / liver / …
[35] = systemic / pathology microscopic / kidney / hyaline droplet + systemic / pathology microscopic / kidney / protein + systemic / pathology …
[36] = systemic / pathology microscopic / stomach / hyperkeratosis + systemic / pathology microscopic / liver / hypertrophy + systemic / pathology …
[37] = group: developmental, developmental / developmental malformation / bone / [other] + developmental / developmental malformation / bone / fused + developmental / …
[38] = group: developmental, systemic / in life observation / body weight / fetal weight
[39] = group: maternal, systemic / in life observation / body weight / body weight + systemic / in life observation / food consumption / food consumption
[40] = group: developmental, developmental / developmental malformation / bone / delayed ossification + developmental / developmental malformation / lung / [other]
[41] = group: developmental, developmental / developmental malformation / bone / delayed ossification + developmental / developmental malformation / lung / [other] + …
[42] = systemic / clinical chemistry / alkaline phosphatase (alp/alk) / alkaline phosphatase (alp/alk) + systemic / hematology / blood clotting / …
[43] = systemic / hematology / blood clotting / blood clotting - prothrombin time + systemic / hematology / reticulocyte / reticulocyte
[44] = systemic / in life observation / body weight / body weight + systemic / organ weight / brain / relative to body weight + systemic / organ …
[45] = systemic / in life observation / body weight / body weight + systemic / organ weight / liver / relative to body weight + systemic / …
[46] = group: developmental, developmental / developmental malformation / bone / incomplete ossification
[47] = group: maternal, systemic / in life observation / body weight / body weight + systemic / in life observation / food consumption / food consumption + systemic…
[48] = systemic / hematology / hematocrit (hct) / hematocrit (hct) + systemic / hematology / hemoglobin (hgb) / hemoglobin (hgb)
[49] = systemic / hematology / hematocrit (hct) / hematocrit (hct) + systemic / hematology / hemoglobin (hgb) / hemoglobin (hgb) + systemic / in …

O=C(O)COc1ccc(Cl)cc1Cl [2,4-Dichlorophenoxyacetic acid]
LEL (mouse [1]; systemic / clinical chemistry / thyroxine (t4) / thyroxine (t4), free + systemic / in life observation / food consumption / food consumption): 98.2 mg/kg/day | LOAEL (mouse [1]; [23]): 293 mg/kg/day | NEL (mouse [1]; [23]): 14.7 mg/kg/day | NOAEL (mouse [1]; [23]): 98.2 mg/kg/day | LEL (dog [2]; [24]): 0.5 mg/kg/day | NEL (dog [2]; [24]): < 0.5 mg/kg/day | NOAEL (dog [2]; [24]): 1 mg/kg/day | LOAEL (dog [2]; systemic / in life observation / body weight / body weight gain + systemic / clinical chemistry / alanine aminotransferase (alt/sgpt) / …): 3.75 mg/kg/day | LEL (rat [3]): 100 mg/kg/day | LOAEL (rat [3]): 100 mg/kg/day | NEL (rat [3]): 15 mg/kg/day | NOAEL (rat [3]): 15 mg/kg/day | LOAEL (rat [4]; [25]): 73.1 mg/kg/day | NOAEL (rat [4]; [25]): 4.89 mg/kg/day | LEL (rat [4]; [26]): 4.89 mg/kg/day | NEL (rat [4]; [26]): < 4.89 mg/kg/day | LEL (dog [5]): 3 mg/kg/day | LOAEL (dog [5]): 3 mg/kg/day | NEL (dog [5]): 1 mg/kg/day | NOAEL (dog [5]): 1 mg/kg/day | LOAEL (dog [6]; [27]): 5 mg/kg/day | NOAEL (dog [6]; [27]): 1 mg/kg/day | LEL (dog [6]; [28]): 1 mg/kg/day | NEL (dog [6]; [28]): < 1 mg/kg/day | LEL (mouse [7]): 62.5 mg/kg/day | LOAEL (mouse [7]): 62.5 mg/kg/day | NEL (mouse [7]): 5 mg/kg/day | NOAEL (mouse [7]): 5 mg/kg/day | LEL (rat [8]; [29]): 75 mg/kg/day | LOAEL (rat [8]; [29]): 75 mg/kg/day | NEL (rat [8]; [29]): 25 mg/kg/day | NOAEL (rat [8]; [29]): 25 mg/kg/day | LEL (rat [8]; [30]): 75 mg/kg/day | LOAEL (rat [8]; [30]): 75 mg/kg/day | NEL (rat [8]; [30]): 25 mg/kg/day | NOAEL (rat [8]; [30]): 25 mg/kg/day

[Cu+2].[O-]/N=[N+](\[O-])C1CCCCC1.[O-]/N=[N+](\[O-])C1CCCCC1
LEL (rat [9]; [31]): 6 mg/kg/day | NEL (rat [9]; [31]): < 6 mg/kg/day | LOAEL (rat [9]; [32]): 33 mg/kg/day | NOAEL (rat [9]; [32]): 6 mg/kg/day | LEL (rat [10]; [33]): 6.1 mg/kg/day | NEL (rat [10]; [33]): < 6.1 mg/kg/day | LOAEL (rat [10]; [34]): 61 mg/kg/day | NOAEL (rat [10]; [34]): 18.3 mg/kg/day | LEL (dog [11]): 69 mg/kg/day | LOAEL (dog [11]): 69 mg/kg/day | NEL (dog [11]): 26 mg/kg/day | NOAEL (dog [11]): 26 mg/kg/day | LOAEL (rat [12]; [35]): 140 mg/kg/day | NOAEL (rat [12]; [35]): 35 mg/kg/day | LEL (rat [12]; [36]): 125 mg/kg/day | NEL (rat [12]; [36]): < 125 mg/kg/day | LOAEL (rabbit [13]; [37]): 30 mg/kg/day | NOAEL (rabbit [13]; [37]): 10 mg/kg/day | LEL (rabbit [13]; [38]): 10 mg/kg/day | NEL (rabbit [13]; [38]): < 10 mg/kg/day | LEL (rabbit [13]; [30]): 10 mg/kg/day | NEL (rabbit [13]; [30]): < 10 mg/kg/day | LOAEL (rabbit [13]; group: maternal, systemic / in life observation / body weight / body weight gain + systemic / in life observation / food consumption / food consumption): 30 mg/kg/day | NOAEL (rabbit [13]; group: maternal, systemic / in life observation / body weight / body weight gain + systemic / in life observation / food consumption / food consumption + …): 10 mg/kg/day

N#Cc1nn(-c2c(Cl)cc(C(F)(F)F)cc2Cl)c(N)c1C(F)(F)F [Fipronil-desulfinyl]
LEL (rat [14]): 0.032 mg/kg/day | LOAEL (rat [14]): 0.032 mg/kg/day | NEL (rat [14]): < 0.032 mg/kg/day | NOAEL (rat [14]): < 0.032 mg/kg/day | LEL (rat [15]): 0.594 mg/kg/day | LOAEL (rat [15]): 0.594 mg/kg/day | NEL (rat [15]): 0.177 mg/kg/day | NOAEL (rat [15]): 0.177 mg/kg/day

OC12N=C(c3ccccc3)SC1Cc1cc(Cl)ccc12 (stereo not drawn) [HMR1426]
LEL (rat [16]; [38]): 1000 mg/kg/day | LOAEL (rat [16]; [38]): 1000 mg/kg/day | NEL (rat [16]; [38]): 500 mg/kg/day | NOAEL (rat [16]; [38]): 500 mg/kg/day | LEL (rat [16]; [39]): 500 mg/kg/day | LOAEL (rat [16]; [39]): 500 mg/kg/day | NEL (rat [16]; [39]): < 500 mg/kg/day | NOAEL (rat [16]; [39]): < 500 mg/kg/day | LEL (rabbit [17]): 500 mg/kg/day | LOAEL (rabbit [17]): > 1000 mg/kg/day | NEL (rabbit [17]): < 500 mg/kg/day | NOAEL (rabbit [17]): ≥ 1000 mg/kg/day | LEL (rabbit [18]; [40]): 62.5 mg/kg/day | NEL (rabbit [18]; [40]): < 62.5 mg/kg/day | LOAEL (rabbit [18]; [41]): > 1000 mg/kg/day | NOAEL (rabbit [18]; [41]): ≥ 1000 mg/kg/day | LEL (rabbit [18]; [39]): 62.5 mg/kg/day | LOAEL (rabbit [18]; [39]): > 1000 mg/kg/day | NEL (rabbit [18]; [39]): < 62.5 mg/kg/day | NOAEL (rabbit [18]; [39]): ≥ 1000 mg/kg/day | LOAEL (dog [19]; [42]): > 630 mg/kg/day | NOAEL (dog [19]; [42]): ≥ 630 mg/kg/day | LEL (dog [19]; [43]): 63 mg/kg/day | NEL (dog [19]; [43]): < 63 mg/kg/day | LOAEL (mouse [20]; [44]): > 1600 mg/kg/day | NOAEL (mouse [20]; [44]): ≥ 1600 mg/kg/day | LEL (mouse [20]; [45]): 400 mg/kg/day | NEL (mouse [20]; [45]): < 400 mg/kg/day | LEL (rat [21]; [46]): 315 mg/kg/day | LOAEL (rat [21]; [46]): 315 mg/kg/day | NEL (rat [21]; [46]): 100 mg/kg/day | NOAEL (rat [21]; [46]): 100 mg/kg/day | LEL (rat [21]; [39]): 100 mg/kg/day | NEL (rat [21]; [39]): < 100 mg/kg/day | LOAEL (rat [21]; [47]): 315 mg/kg/day | NOAEL (rat [21]; [47]): 100 mg/kg/day | LEL (rat [22]; [48]): 31.5 mg/kg/day | NEL (rat [22]; [48]): < 31.5 mg/kg/day | LOAEL (rat [22]; [49]): 315 mg/kg/day | NOAEL (rat [22]; [49]): 31.5 mg/kg/day
